Experimental findings from US5500428A, “Furyl-substituted purines and adenosine antagonists” (Imperial Chemical Industries PLC, priority 1991, dated 1996) are described below.

For the test, the target named is T1, A2 Adenosine receptor (Rattus norvegicus, UniProt P30543).
T1 construct: membrane preparations derived from the rat phaeochromocytoma cell line PC 12; host or cells: PC 12 rat phaeochromocytoma cells, membranes
The test is described as follows: A2 Adenosine receptor affinity test: displacement of [3H]-NECA from PC 12 cell membrane preparations. Format: binding. The procedure: The membrane preparation is obtained as follows: Frozen pellets of PC12 cells are washed twice with ice cold, buffered, physiological saline and the cells recovered by centrifugation (1500 G) at 3° C. The separated cells are then suspended in hypotonic solution (distilled water), allowed to stand on ice for 30 minutes and are then carefully homogenized using a standard high-speed homogeniser with periodic ice-cooling to obtain a fine suspension. […] The mixture is then incubated at 37° C. After 20 minutes, the reaction is terminated by dilution with ice-cold buffer and transfer onto ice. The material obtained containing the cell membranes is recovered by centrifugation and washed by resuspension in buffer and recentrifugation. The pellet produced is then resuspended in ice-cold buffer using a hand-driven homogenizer. The resultant membrane suspension is frozen and stored under liquid nitrogen until required.
After incubation, the samples are rapidly filtered over glass-fibre mats and the filter mats are washed to remove non-receptor-bound radioligand. Receptor-bound radioligand entrapped on the filter mats is then determined by liquid scintillation counting. Filtration and washing are carried out using a conventional vacuum filtration cell harvester. The specific binding (defined as the difference between the total binding and the non-specific binding) in the presence of the particular test compound is determined and compared with the control value.
Background: Displacement assays read how much labelled ligand stays bound in the presence of the test substance.

The mark [1] stands for this setting: read-out: displacement of control binding.

T1 sequence (P30543 whole entry): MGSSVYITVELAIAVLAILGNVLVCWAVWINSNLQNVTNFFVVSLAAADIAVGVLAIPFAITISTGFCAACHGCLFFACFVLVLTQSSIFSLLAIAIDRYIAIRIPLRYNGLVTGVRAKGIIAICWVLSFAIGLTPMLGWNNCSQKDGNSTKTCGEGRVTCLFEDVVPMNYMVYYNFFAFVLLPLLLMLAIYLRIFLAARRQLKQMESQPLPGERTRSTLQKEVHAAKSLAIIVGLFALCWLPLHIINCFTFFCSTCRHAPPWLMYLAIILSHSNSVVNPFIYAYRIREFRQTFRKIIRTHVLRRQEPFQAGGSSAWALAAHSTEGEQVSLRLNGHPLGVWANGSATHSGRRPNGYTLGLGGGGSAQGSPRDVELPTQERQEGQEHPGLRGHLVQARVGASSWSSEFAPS

Regarding `COc1ccc(CCNc2nc(N)c3nc(-c4ccco4)oc3n2)cc1` [Example 1, 7-amino-2-(2-furyl)-5-[2-(4-methoxyphenyl)ethyl]asino-oxazolo[5,4-d]pyrimidine], for the setting “[3H]-NECA displacement, PC 12 membranes, inferred from displacement at 10^-5 M and 10^-7 M, read-out: pIC50 (indicated by the % displacement values) (converted)”, the IC50 was less than 100 nM. Moreover, under setting [1], the inhibition at 0.1 µM is 59% and the inhibition at 10 µM is 78%.
